Results taken from US20220363673A1, “5-(Thiophen-2-YL)-1 H-Tetrazole Derivative as BCKDK Inhibitors Useful for Treating Various Diseases” (Pfizer Inc., priority 2019, published 2022).

Experiments:
[1] = system: Dahl salt sensitive male rats; assay: Heart Failure Rat Model, high salt diet; assay type: in vivo
Procedure: Dahl salt sensitive male rats (Charles River strain SS/JrHsdMcwiCrl) were fed control diet or 6% high salt diet (iD03121701-AIN-76a rodent diet with added 6% NaCl) for 21 weeks in total. At week 5, the high salt diet-fed rats were dosed PO with 100 mg/kg BT2 or vehicle once daily for the last 16 weeks of study. Echocardiography was performed at week 18 (myocardial performance index (MPI): control diet 0.567±0.034, high salt+vehicle 0.810±0.039, high salt+BT2 0.660±0.030; Isovolumic relaxation time (IVRT): control diet 23.154±0.60 ms, high salt+vehicle 36.507±2.20 ms, high salt+BT2 31.605±1.78 ms; Intraventricular septal thickness at diastole (IVDd): control 2.03±0.088 mm, high salt+vehicle 2.877±0.110 mm, high salt+BT2 2.489±0.089 mm). NT-pro-BNP (MSD K153JKD; control […], high salt+vehicle 1003.0±200.8 μg/mL, high salt+BT2 503.4±84.96 μg/mL), and proANP (MSD K153MBD; control 33.50±5.4 ng/mL, high salt 65.19±8.3 ng/mL, high salt+BT2 38.81±7.0 ng/mL) levels were measured in plasma using MSD assays at the terminal time point. Heart weights were measured at euthanasia and normalized to tibia length (heart/tibia control 0.033±0.001 g/mm; high salt+vehicle 0.042±0.001 g/mm, high salt+BT2 0.038±0.001 g/mm).

[2] = system: Mice fed 60% high fat diet; assay: Diabetic Animal Model: fasting glucose and oral glucose tolerance test; assay type: in vivo; details: for fasting plasma glucose levels: mean±SEM, vehicle 185±18; for Area under the curve for the glucose tolerance test as percent of vehicle treated group: 1 g/kg dextrose, vehicle 100.0±7
Procedure: Mice fed 60% high fat diet (Research Diets 12492) were dosed PO with Example 1 for one day, fasted overnight, and blood glucose was measured with an alpha track glucometer. The animals were dosed again PO with Example 1 the next morning, and one hour later, blood glucose was measured again immediately using an alpha track glucometer (Zoetis, Parsippany, N.J.) to assess fasting glucose levels prior to oral gavage of 1 g/kg dextrose. Blood glucose was measured 15, 30, 60, and 120 minutes after the gavage, and the data were plotted and analyzed as area under the curve using GraphPad Prism 8.0 (GraphPad Software, La Jolla, Calif.). For animals that were dosed with vehicle or Example 1 as above, mean±SEM fasting plasma glucose levels were 185±18 (vehicle, n=7), 194±14 (3 mg/kg, n=9), 160±11 (10 mg/kg, n=10), 136±9 mg/dL (30 mg/kg, n=9). Area under the curve for the glucose tolerance test as percent of vehicle treated group was 100.0±7 (vehicle, n=7), 106±9 (3 mg/kg, n=9), 99±2 (10 mg/kg, n=10), 72±4 (30 mg/kg, n=9).

[3] = system: phosphorylation of S293 BCKDH; assay: Phospho BCKDHA AlphaLISA in human skeletal myocytes; assay type: cell-based; details: 1 h, 60 minutes, maximal effect relative to BT2
Procedure: Prior to conducting the assay, BCKDH antibodies (Bethyl A303-790A) were biotinylated using the ChromaLink™ One-Shot Antibody Biotinylation Kit B-9007-009K and phospho Ser293 BCKDHA antibodies (Bethyl A304-672A) were directly conjugated to AlphaLISA Acceptor Beads (custom conjugation performed by Perkin Elmer's Lance/Delfia Custom Services, Boston Mass.). Human skeletal myocytes (Gibco A11440) were plated in a 384 well plate at a density of 7500 live cells/well and grown in skeletal muscle growth media containing the media supplement and chick embryo extract (Promocell C-23060 and C-23160, MP92850145). After overnight incubation, media was removed, and BCKDK inhibitors were added in assay media (growth media diluted 10-fold in PBS). After 60 minutes, the media was removed, the cells were washed with PBS and lysed in 10 μL of buffer (Cell Signaling #9803) containing 2 nM biotinylated total BCKDH antibodies. Samples were incubated for 60 minutes, and 5 μL of AlphaLISA acceptor beads conjugated with phospho-S293 BCKDH antibodies were added 1× Alpha buffer. […] Fluorescence was emitted when the phospho and total BCKDH antibodies were within proximity, signifying phosphorylation of S293 BCKDH. Fluorescence was monitored on the Envision plate reader. The zero percent effect was determined from DMSO treatment and the maximal effect was assessed relative to the BCKDK inhibitor BT2. […]

[4] = biological target: T1, human BCKDK (Homo sapiens, UniProt O14874); assay: In Vitro FRET (TR-FRET) BCKDK activity assay, phosphorylation of BCKDHE1α-E2 fusion substrate; assay type: biochemical; details: geometric mean, two significant figures; 15 μM ATP
T1 construct: human BCKDK (residues 31-412 of the protein pre-processing); 6xHis (N, cleaved yes); MBP (N, cleaved yes); TEV protease site (ENLYFQG) (N, cleaved yes); made in house; host or cells: BL21(DE3) E. coli, co-expressed with GroEL-GroES
Procedure: BCKDK protein was generated using a pET vector containing from N- to C-terminus: 6×His, MBP, a TEV protease site (ENLYFQG), a biotin acceptor peptide ([…]), and human BCKDK (residues 31-412 of the protein pre-processing). Protein was co-expressed with GroEL-GroES in BL21(DE3) E. coli in LB media, and protein production was induced with 0.5 mM IPTG and 0.5 mg/mL L-arabinose at an OD600 of 1 and grown for 16 h at 26° C. Bacteria were lysed using a Microfluidizer in 100 mM potassium phosphate pH 7.5, 500 mM NaCl, 0.1 mM EDTA, 1% Tween-20, 0.25% Triton X-100, 10% glycerol, 1 mM DTT, and protease inhibitors. MBP-tagged protein was purified by affinity chromatography using amylose resin, and MBP was removed from BCKDK by TEV protease incubation followed by gel filtration chromatography in 50 mM HEPES pH 7.5, 500 mM NaCl, 300 mM L-Arginine, 2 mM MgCl2, 1 mM DTT, and 10% glycerol.
A pET vector containing E. coli LplA was expressed in BL21(DE3) E. coli in LB media, and protein production was induced with 0.75 mM IPTG at an OD600 of 1 and grown for 16 h at 30° C. Bacteria were lysed using a Microfluidizer in 50 mM sodium phosphate buffer pH 7.5, 350 mM NaCl, 1.5 mM MgCl2, and 1 mM DTT. LplA protein was precipitated from clarified lysate with 1 M ammonium sulfate and further purified by gel filtration chromatography in 50 mM sodium phosphate pH 7.5, 350 mM NaCl, 1.5 mM MgCl2, 1 mM DTT, and 10% glycerol.
The BCKDHE1α-E2 fusion substrate was cloned into a pET vector and contained from N- to C-terminus: the lipoyl binding domain of E2 (residues 62-160 pre-processing), a TEV protease site (LENLYFQG), residues 331-345 (pre-processing) from E1α, and 6×His (Tso, S. C. et al., J Biol Chem 2014, 289 (30), 20583-20593). The fusion substrate was expressed in BL21(DE3) E. coli in LB media, and protein production was induced with 0.75 mM IPTG at an OD600 of 1 and grown for 16 h at 30° C. Bacteria were lysed using a Microfluidizer in 50 mM sodium phosphate pH 7.5, 350 mM NaCl, 10 mM imidazole, 10% glycerol, 1 mM DTT, and protease inhibitors. […] For lipoylation, fusion substrate was incubated with LplA at a 10:1 (substrate:LplA) ratio in 20 mM sodium phosphate pH 7.4, 6 mM MgCl2, 4 mM ATP, 2 mM DTT, 3 mM DL-6,8-thioctic acid at 37° C. The reaction was monitored using an Agilent 6530 Q-TOF coupled to an Agilent 1290 UPLC. The final lipoylated fusion substrate was purified by gel filtration chromatography in 50 mM HEPES pH 7.5, 350 mM NaCl, 1.5 mM MgCl2, 1 mM DTT, 10% glycerol.
BCKDK activity was monitored by phosphorylation of a HIS-tagged fusion BCKDHE1α-E2 substrate protein as described above and was detected using a time resolved-fluorescence resonance energy transfer (TR-FRET) assay system. Compounds were spotted into a 384 well plate, and purified human BCKDK protein was added to the plated compound. After incubation, the LBD-linker-E1 phosphorylation sequence was added in the presence of 15 μM ATP. The reaction was terminated with EDTA. Phosphorylated substrate was recognized by the addition of rabbit anti-E1 phospho Ser293 antibodies (Bethyl Laboratories—A304-672A), and the TR-FRET signal was developed by addition of anti-HIS donor molecules (Europium; Perkin Elmer—AD0205, AD0110, AD0111) and anti-Rabbit acceptor molecules (Ulight; Perkin Elmer—TRF502D, TRF502M, TRF502R). Recognition of phosphorylated E1 brought donor and acceptor molecules into close proximity, and excitation at 320 nm caused energy transfer from the Europium donor to the Ulight acceptor dye, which in turn generated light at 665 nm. Signal intensity was proportional to the level of BCKDK-mediated substrate phosphorylation. Reactions were normalized to zero percent effect with DMSO and one hundred percent effect with 600 μM Radicicol, a known BCKDK inhibitor. IC50 curves were generated using ABASE software (IDBS, Boston Mass.).

| IC50 [3] [µM] | IC50 [4] [µM] | Compound | Heart weight normalized to tibia length (heart/tibia) ([1]; at euthanasia, 100 mg/kg PO once daily, control 0.033±0.001, high salt+vehicle 0.042±0.001) [g/mm] | Intraventricular septal thickness at diastole (IVDd) ([1]; echocardiography week 18, 100 mg/kg PO once daily, control 2.03±0.088, high salt+vehicle 2.877±0.110) [mm] | myocardial performance index (MPI) ([1]; echocardiography week 18, 100 mg/kg PO once daily, control diet 0.567±0.034, high salt+vehicle 0.810±0.039) | Isovolumic relaxation time (IVRT) ([1]; echocardiography week 18, 100 mg/kg PO once daily, control diet 23.154±0.60, high salt+vehicle 36.507±2.20) [ms] | proANP level in plasma ([1]; terminal time point, 100 mg/kg PO once daily, control 33.50±5.4, high salt 65.19±8.3) [ng/mL] | fasting plasma glucose levels ([2]; 3 mg/kg PO, n=9) [mg/dL] | Area under the curve for the glucose tolerance test as percent of vehicle treated group ([2]; 3 mg/kg PO, n=9) | fasting plasma glucose levels ([2]; 10 mg/kg PO, n=10) [mg/dL] | Area under the curve for the glucose tolerance test as percent of vehicle treated group ([2]; 10 mg/kg PO, n=10) | fasting plasma glucose levels ([2]; 30 mg/kg PO, n=9) [mg/dL] | Area under the curve for the glucose tolerance test as percent of vehicle treated group ([2]; 30 mg/kg PO, n=9) |
| --- | --- | --- | --- | --- | --- | --- | --- | --- | --- | --- | --- | --- | --- |
| – | – | O=C(O)c1sc2cc(Cl)ccc2c1Cl [BT2] | 0.038±0.001 | 2.489±0.089 | 0.660±0.030 | 31.605 ± 1.78 | 38.81 ± 7.0 | – | – | – | – | – | – |
| 18 ± 2.3 | 1.9 | Cc1c(Br)csc1-c1nnn[nH]1 [Example 1, 5-(4-Bromo-3-methylthiophen-2-yl)-1H-tetrazole] | – | – | – | – | – | 194 ± 14 | 106±9% of vehicle treated group | 160 ± 11 | 99±2% of vehicle treated group | 136 ± 9 | 72±4% of vehicle treated group |
| 11 ± 0.87 | 1.4 | Cc1cc(Cl)sc1-c1nnn[nH]1 [Example 9, 5-(5-Chloro-3-methylthiophen-2-yl)-1H-tetrazole] | – | – | – | – | – | – | – | – | – | – | – |
